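48-hour exposure; five concentrations; linearly interpolated endpoints. GI50: concentration for 50% inhibition of growth. The concentration for full growth arrest is given as TGI.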
Experiments:
Assay in all cases: growth of human tumour cells (NCI), 48 h
786-0 renal = tested on: 786-0 renal
HL-60(TB) leukemia = tested on: HL-60(TB) leukemia
HS 578T breast = tested on: HS 578T breast
K-562 leukemia = tested on: K-562 leukemia
MOLT-4 leukemia = tested on: MOLT-4 leukemia
OVCAR-3 ovarian = tested on: OVCAR-3 ovarian
OVCAR-8 ovarian = tested on: OVCAR-8 ovarian
SN12C renal = tested on: SN12C renal
SNB-19 CNS = tested on: SNB-19 CNS
UACC-62 melanoma = tested on: UACC-62 melanoma

| Structure (SMILES) | GI50 (786-0 renal) | TGI (786-0 renal) | GI50 (HL-60(TB) leukemia) | TGI (HL-60(TB) leukemia) | GI50 (HS 578T breast) | TGI (HS 578T breast) | GI50 (K-562 leukemia) | TGI (K-562 leukemia) | GI50 (MOLT-4 leukemia) | TGI (MOLT-4 leukemia) | GI50 (OVCAR-3 ovarian) | TGI (OVCAR-3 ovarian) | GI50 (OVCAR-8 ovarian) | TGI (OVCAR-8 ovarian) | GI50 (SN12C renal) | TGI (SN12C renal) | GI50 (SNB-19 CNS) | TGI (SNB-19 CNS) | GI50 (UACC-62 melanoma) | TGI (UACC-62 melanoma) |
| --- | --- | --- | --- | --- | --- | --- | --- | --- | --- | --- | --- | --- | --- | --- | --- | --- | --- | --- | --- | --- |
| COc1ccccc1Nc1nc(-c2cc3cccc(C(F)(F)F)c3oc2=O)cs1 | 0.218 µM | > 42.9 µM | 0.186 µM | 0.521 µM | 0.277 µM | > 81.2 µM | 0.0538 µM | > 100 µM | 0.5 µM | > 100 µM | 0.0624 µM | 0.203 µM | 0.301 µM | > 100 µM | 1.04 µM | > 100 µM | 1.15 µM | > 100 µM | 0.154 µM | > 81.6 µM |
| CSC(=S)N/N=C(\C)c1ccccn1 | 0.315 µM | 12.5 µM | < 0.0453 µM | 0.18 µM | 2.82 µM | 36.3 µM | < 0.01 µM | 23.3 µM | < 0.0145 µM | 0.975 µM | < 0.01 µM |  | 0.203 µM | 13.5 µM | 0.454 µM | 37.5 µM | 0.77 µM | > 72.3 µM | 0.181 µM | 0.955 µM |
| Cn1c(=O)c(Cc2ccc(F)cc2F)cc2cnc(NC3CCOCC3)nc21 | > 25 µM | > 25 µM | > 25 µM | > 25 µM | > 23.6 µM | > 25 µM | > 20.1 µM | > 25 µM | > 21.2 µM | > 25 µM | > 25 µM | > 25 µM | > 25 µM | > 25 µM | > 19.8 µM | > 25 µM | 24.3 µM | > 25 µM | > 23.8 µM | > 25 µM |
| COc1cc(/C=C/C(=O)c2ccc(Nc3nc(Nc4ccc(F)cc4)nc(Nc4ccc(F)cc4)n3)cc2)cc(OC)c1OC | 2.66 µM | 12 µM | 1 µM | > 100 µM | 16.7 µM | > 100 µM | 3 µM | > 100 µM | 1.93 µM | > 100 µM | > 100 µM | > 100 µM | 1.94 µM | > 100 µM | 33.6 µM | > 100 µM | 76.6 µM | > 100 µM | 10.7 µM | 41.4 µM |
| O=C(CC1C(=O)Nc2ccccc2S1=O)Nc1cccc(Cl)c1 (centres undefined) |  | > 100 µM |  | > 64.2 µM |  | > 100 µM |  | 29.2 µM |  | > 67.2 µM |  | > 79.2 µM |  | > 71.9 µM |  | > 100 µM |  | > 88.9 µM |  | > 76.1 µM |
| Oc1ccc2ccccc2c1/C=N\Nc1ccccn1 | 0.618 µM | 4.58 µM | 0.267 µM | 0.795 µM | 1.4 µM | > 34.5 µM | 0.426 µM | > 100 µM | 0.358 µM | > 100 µM | 0.349 µM | > 56.8 µM | 0.365 µM | > 60.4 µM | 1.7 µM | > 100 µM | 1.33 µM | > 100 µM | 0.692 µM | 13.1 µM |
| O=Nc1c(-c2cccc([N+](=O)[O-])c2)nc2ncccn12 | 17.6 µM | 54.7 µM | 2.32 µM | 6.15 µM | 12.8 µM | 47.4 µM | 1.28 µM | 4.15 µM | 1.79 µM | 5.31 µM | 3.22 µM | 12.5 µM | 8.9 µM | 43.8 µM | 16.4 µM | 42.3 µM | 18 µM | 39.6 µM | 14.4 µM | 29.3 µM |
| COc1ccc(-n2c(N)c(C(=O)NCCN3CCOCC3)c3nc4ccccc4nc32)cc1OC | 2.02 µM | 79.2 µM | 21.8 µM | > 100 µM | 9.27 µM | > 100 µM | 2.96 µM | > 100 µM | 2.87 µM | 27.4 µM | 20.3 µM | > 100 µM | 6.94 µM | > 100 µM | 5.29 µM | > 100 µM | 10.9 µM | > 100 µM | 9.82 µM | > 100 µM |
| COc1ccc(C2CC(c3cc(OC)c(OC)c(OC)c3)=NN2)cc1 (centres undefined) | 20.7 µM | > 100 µM | 2.19 µM | 12 µM | 14.4 µM | 98.3 µM | 2.66 µM | > 100 µM | 4.76 µM | 25 µM | 3.74 µM | 55.3 µM | 28.4 µM | > 100 µM | 31.4 µM | > 100 µM | 15.6 µM | > 100 µM | 7.63 µM | > 100 µM |
| O=c1c2ccccc2nc(-c2ccc(Cl)cc2)n1O |  | 94.4 µM |  | 65 µM |  | > 100 µM |  | > 100 µM |  | > 100 µM |  | > 100 µM |  | 48.4 µM |  | > 100 µM |  | > 100 µM |  | > 100 µM |
| Cc1cc(S(N)(=O)=O)c(S/C(=N\NS(=O)(=O)c2ccc(Cl)cc2)c2ccc(Cl)cc2)cc1Cl | > 100 µM | > 100 µM | 40.6 µM | > 100 µM | 79.7 µM | > 100 µM | 45.3 µM | > 100 µM | 8.12 µM | > 100 µM | > 100 µM | > 100 µM | > 100 µM | > 100 µM | > 100 µM | > 100 µM | > 100 µM | > 100 µM | > 100 µM | > 100 µM |
| O=C(O)/C(Cl)=C(/Cl)C(=O)Nc1cccc(Cl)c1 |  | 31.8 µM |  | 22.7 µM |  | 71.6 µM |  | 40.1 µM |  | 8.45 µM |  | 31.4 µM |  | 38.9 µM |  | 36.9 µM |  | > 92.5 µM |  | 31.7 µM |
| O=Cc1ccc(C(F)(F)F)cc1.[C-]#[O+].[C-]#[O+].[C-]#[O+].[Cr] | 13.1 µM | 44.1 µM | 16.1 µM | 92.6 µM | 24.6 µM | 75.9 µM | 26.2 µM | 97.6 µM | 15.4 µM | 68 µM | 25.4 µM | > 100 µM | 25.3 µM | > 100 µM | 22.6 µM | 82.1 µM | 26.7 µM | 89.6 µM | 13.3 µM | 37 µM |
| COc1ccc(C(=O)Nc2cccc(C3CC(=O)c4c(cc(OC)c(OC)c4OC)O3)c2)cc1 (centres undefined) | 0.795 µM | > 100 µM | 1 µM | 3.36 µM | 2 µM | 42.4 µM | 0.367 µM | > 100 µM | 1.02 µM | 5.18 µM | 0.337 µM | 39.7 µM | 2.79 µM | 20.5 µM | 1.62 µM | > 100 µM | 1.01 µM | > 100 µM | 0.557 µM | 10.8 µM |
| O=C1NC(=NCCc2ccccc2Cl)S/C1=C\c1ccc2ncccc2c1 | 7.66 µM | > 25 µM | 2.63 µM | 10.3 µM | 7.03 µM | > 17 µM | 1.1 µM | > 25 µM | 5.4 µM | 17.2 µM | 5.31 µM | 19.8 µM | 8.16 µM | > 25 µM | 7.72 µM | > 25 µM | 7.4 µM | > 25 µM | 6.49 µM | > 25 µM |
| CCCCCCCCSC1=CC(=O)C(OC)=C(OC)C1=O | 7.86 µM | 20.1 µM | 0.437 µM | 21.4 µM | 2.64 µM | 9.85 µM | 2.73 µM | > 100 µM | 1.87 µM | > 100 µM | 1.45 µM | 2.85 µM | 2.16 µM | 5.16 µM | 5.21 µM | 18.4 µM | 13.7 µM | 27.3 µM | 3.5 µM | 13.9 µM |
| Cc1c2c(nn1-c1ccc(S/N=C3\SCC(=O)CN3c3ccccc3)cc1)-c1ccccc1CC2 | 13.3 µM | > 50 µM | > 50 µM | > 50 µM | 15.5 µM | > 50 µM | 17.6 µM | > 50 µM | 19.6 µM | > 50 µM | > 50 µM | > 50 µM | > 50 µM | > 50 µM | 17.8 µM | > 50 µM | > 50 µM | > 50 µM | 16 µM | > 50 µM |
| NCCOc1ccccn1 |  | > 100 µM |  | > 100 µM |  | > 100 µM |  | > 100 µM |  | > 100 µM |  | > 100 µM |  | > 100 µM |  | > 100 µM |  | > 100 µM |  | > 100 µM |
| CO/N=C1/c2cc(OC)ccc2-c2c(NOC)nc3ccccc3c21 | 17.7 µM | 34.2 µM | 28.3 µM | > 100 µM | 18 µM | 51 µM | 65.7 µM | > 100 µM | 47 µM | > 100 µM | 49.2 µM | > 100 µM | 10.3 µM | 37 µM | 29.5 µM | > 100 µM | 17.5 µM | 53 µM | 27.5 µM | > 100 µM |
| CC(C)(C)c1ccc(-c2nnc(SCc3ccc(Cl)cc3)n2-c2cccc(C(F)(F)F)c2)cc1 |  | > 100 µM |  | 14.6 µM |  | > 100 µM |  | > 100 µM |  | > 67.1 µM |  | 16.8 µM |  | > 100 µM |  | 14 µM |  | > 100 µM |  | > 100 µM |
